Results taken from patent US8987257B2 (Novartis AG, priority 2011, dated 2015).

What was measured:
PI3Kα = PI3Kα (Homo sapiens (Human), UniProt P42336); assay: Test 1: PI3 Kinase Assay (PI3K KinaseGlo assay); assay type: biochemical; conditions: 1 μM ATP
FRAP1/mTOR = FRAP1/mTOR (Homo sapiens (Human), UniProt P42345); assay: Test 2: mTOR Biochemical Assay (FRAP1/mTOR TR-FRET tracer assay); assay type: binding; conditions: mTOR Kinase Tracer 314
[1] = test system: constitutively active mTOR; assay: Test 3: TSC Assay (high content imaging of phospho-S6 (240/244) in TSC1−/− MEFs); assay type: cell-based; conditions: Mus musculus, pS6 240/244 staining, 2 hrs compound treatment
H4 mCherry-GFP-LC3 cells = assay: Test 4: Autophagy Assay (mCherry-GFP-LC3 reporter, high-content imaging); assay type: cell-based; conditions: Homo sapiens, 16-18 h
Description: Autophagy is a catabolic pathway that degrades bulk cytosol in lysosomal compartments enabling amino acids and fatty acids to be recycled. […] To quantify autophagy induction by mTOR inhibitors, we use a mCherry-GFP-LC3 reporter which is amenable to retroviral delivery into mammalian cells, stable expression and analysis by fluorescence microscopy.
Described hereinafter is an imaging protocol and image recognition algorithm to visualize and measure changes in the autophagic pathway.
Quantification of Autophagy Using High-Content Imaging and Analysis
• 1. Day 0: Cell plating. Subconfluent H4 mCherry-GFP-LC3 cells are harvested by trypsinization, resuspended in growth medium, and counted (H4 cells: Human neuroglioma cell line (ATCC)). A cell suspension of 66′000 cells/mL is prepared and 30 μL are added into the wells of a 384-well plate using an electronic multichannel pipette. […] The cell plates are briefly spun down and placed at 37° C. and 5% CO2. • 2. Day 1: Compound treatment. Compound dose responses are prepared in DMSO. The dose responses are then diluted 1:50 in medium. 10 ul of the diluted compound is added to 30 ul of cells, yielding a final 1:200 dilution of the original compound and final of 0.5% DMSO. Compound-treatments are performed in triplicates. The 384-well plates are placed at 37° C. and 5% CO2. Compound treatment is performed for 16-18 h (see Note 1). • 3. Day 2: Cell fixation. Cells are fixed by adding 10 μL/well 5× concentrated Mirsky's fixative supplemented with 25 μg/mL Hoechst33342. […] The 384-well plate is briefly spun down and incubated for 1 h at room temperature. Cells are then washed using a 384-well plate washer using a protocol which aspirates the volume down to 10 μL/well before dispensing 100 μL/well 1×TBS. Aspiration and dispensing steps are repeated 4 times and a final volume of 100 μL/well is left. The plate is sealed using an adhesive PCR foil. • 4. Imaging. The bottom of the plate is cleaned with 70% ethanol and then imaged using the InCell 1000 automated epifluorescence microscope. 20× magnification is used and 4 different areas (fields) are imaged per well, this typically captures a total of around 400 cells per well. Hoechst33342 images are acquired using an excitation of 360 nm (D360—40× filter), an emission of 460 nm (HQ460—40M filter) and an exposure time of 150 ms. GFP images are acquired using an excitation of 475 nm (S47520× filter), an emission of 535 nm (HQ535—50M filter) and an exposure time of 1 s. mCherry images are acquired using an excitation of 535 nm (HQ535—50× filter), an emission of 620 nm (HQ620—60M filter) and an exposure time of 1 s. A quadruple band pass mirror is used for all images. • 5. Image analysis. The InCell Analysis software is used to analyze the images using the Multi Target Analysis algorithm. First, nuclei are detected in the Hoechst33342 image using top-hat segmentation and a minimal nuclear area of 50 μm^2. Cells are defined using a collar of 10 μm around the nuclei. Second, puncta (organelles) are identified in the mCherry image inside the cells using multi-top-hat segmentation. Third, the mask of the mCherry puncta is transferred onto the GFP image. Fourth, the GFP fluorescence intensity inside the mCherry puncta mask is measured (reference intensity). • 6. The ‘organelles’ parameter reflects mCherry-positive puncta of the mCherry-GFP-LC3 reporter and is used to calculate ‘LC3 puncta/cell’. For this purpose, the number of organelles is calculated per cell and averaged over all the cells in a given well (average per cell basis). mCherry-positive LC3 puncta numbers (y-axis) are plotted against the compound dose response values (x-axis) and EC50 values are calculated for each compound. EC50 values represent compound potency in terms of autophagy activation (e.g. increase in mCherry-positive LC3 puncta count). Notes • 1. Autophagy-modulation and redistribution of mCherry-GFP-LC3 can be already observed after a compound treatment time of 3-4 h. […]

[2] = Table 1, mCherry-positive LC3 puncta/cell
[3] = Table 4 (unit inferred), mCherry-positive LC3 puncta/cell

Sequence of PI3Kα (P42336 other isoform, or with tags, fused parts or gaps): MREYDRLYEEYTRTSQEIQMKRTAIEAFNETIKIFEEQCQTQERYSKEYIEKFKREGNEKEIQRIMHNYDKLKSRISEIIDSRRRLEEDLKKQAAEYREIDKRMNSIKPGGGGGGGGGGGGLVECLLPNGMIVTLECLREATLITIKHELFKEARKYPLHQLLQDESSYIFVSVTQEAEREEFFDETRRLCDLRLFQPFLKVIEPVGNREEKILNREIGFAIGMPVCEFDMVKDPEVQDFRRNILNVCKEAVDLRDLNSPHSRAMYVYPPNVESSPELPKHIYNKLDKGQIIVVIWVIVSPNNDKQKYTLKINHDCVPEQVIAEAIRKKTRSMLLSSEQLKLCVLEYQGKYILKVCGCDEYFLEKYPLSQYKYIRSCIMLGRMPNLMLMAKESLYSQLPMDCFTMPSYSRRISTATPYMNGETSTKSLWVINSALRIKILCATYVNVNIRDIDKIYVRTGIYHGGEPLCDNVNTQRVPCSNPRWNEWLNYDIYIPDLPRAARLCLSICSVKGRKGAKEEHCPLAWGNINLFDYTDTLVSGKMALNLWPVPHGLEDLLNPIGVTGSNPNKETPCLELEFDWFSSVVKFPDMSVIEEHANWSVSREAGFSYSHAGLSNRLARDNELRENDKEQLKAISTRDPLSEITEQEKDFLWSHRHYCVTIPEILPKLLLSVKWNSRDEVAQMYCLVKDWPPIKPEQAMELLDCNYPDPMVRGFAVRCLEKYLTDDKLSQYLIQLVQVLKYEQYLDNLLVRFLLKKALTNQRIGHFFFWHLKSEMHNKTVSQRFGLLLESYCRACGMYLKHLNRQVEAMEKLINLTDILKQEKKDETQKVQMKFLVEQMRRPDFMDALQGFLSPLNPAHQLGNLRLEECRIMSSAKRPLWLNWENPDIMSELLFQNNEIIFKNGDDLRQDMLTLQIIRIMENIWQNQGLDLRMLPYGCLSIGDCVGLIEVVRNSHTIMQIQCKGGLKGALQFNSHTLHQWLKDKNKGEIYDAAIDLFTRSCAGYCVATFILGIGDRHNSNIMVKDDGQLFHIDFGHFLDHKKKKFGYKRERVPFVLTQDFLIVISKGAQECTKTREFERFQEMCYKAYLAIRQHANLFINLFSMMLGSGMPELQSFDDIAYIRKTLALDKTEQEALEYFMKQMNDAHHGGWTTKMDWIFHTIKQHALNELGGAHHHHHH
Sequence of FRAP1/mTOR (P42345 1360-2549): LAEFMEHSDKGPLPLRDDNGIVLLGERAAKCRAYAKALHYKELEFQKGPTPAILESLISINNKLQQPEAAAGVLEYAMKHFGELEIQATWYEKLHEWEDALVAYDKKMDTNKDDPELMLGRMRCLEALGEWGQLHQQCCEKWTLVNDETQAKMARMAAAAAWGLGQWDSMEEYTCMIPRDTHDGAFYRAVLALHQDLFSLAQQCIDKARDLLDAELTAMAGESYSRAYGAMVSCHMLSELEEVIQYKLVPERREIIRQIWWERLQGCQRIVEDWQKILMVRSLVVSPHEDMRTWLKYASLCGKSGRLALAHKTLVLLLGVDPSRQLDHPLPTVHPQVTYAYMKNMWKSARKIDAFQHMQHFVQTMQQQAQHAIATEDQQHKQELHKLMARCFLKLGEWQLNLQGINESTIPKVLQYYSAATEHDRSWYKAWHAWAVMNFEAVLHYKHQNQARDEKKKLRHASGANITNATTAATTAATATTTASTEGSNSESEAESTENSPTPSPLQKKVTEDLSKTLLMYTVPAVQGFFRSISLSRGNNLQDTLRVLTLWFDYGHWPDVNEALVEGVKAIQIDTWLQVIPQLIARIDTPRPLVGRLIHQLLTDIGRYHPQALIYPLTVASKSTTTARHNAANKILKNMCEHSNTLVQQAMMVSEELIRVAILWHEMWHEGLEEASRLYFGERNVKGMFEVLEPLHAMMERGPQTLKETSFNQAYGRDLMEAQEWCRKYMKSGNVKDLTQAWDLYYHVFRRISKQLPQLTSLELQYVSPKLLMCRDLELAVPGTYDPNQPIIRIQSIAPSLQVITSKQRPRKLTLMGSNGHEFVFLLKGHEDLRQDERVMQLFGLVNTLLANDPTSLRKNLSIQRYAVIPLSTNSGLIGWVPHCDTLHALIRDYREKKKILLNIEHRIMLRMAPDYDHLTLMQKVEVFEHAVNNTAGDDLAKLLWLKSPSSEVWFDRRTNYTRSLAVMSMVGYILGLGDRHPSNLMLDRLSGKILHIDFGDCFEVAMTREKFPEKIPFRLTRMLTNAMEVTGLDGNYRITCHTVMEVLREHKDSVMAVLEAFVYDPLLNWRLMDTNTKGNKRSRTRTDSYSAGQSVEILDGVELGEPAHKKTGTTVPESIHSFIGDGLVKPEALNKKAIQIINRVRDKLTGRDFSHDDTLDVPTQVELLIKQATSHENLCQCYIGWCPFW

IC50 (PI3Kα) [nM]	IC50 (FRAP1/mTOR) [nM]	IC50 [1] [nM]	EC50 (H4 mCherry-GFP-LC3 cells; [2]) [nM]	EC50 (H4 mCherry-GFP-LC3 cells; [3]) [nM]	Compound
3010	1450	1520	> 2000	–	CC(=O)Nc1cccc(-c2nc3c(N4CCOCC4)nc(N4CCOCC4)nc3[nH]2)c1 [Example 30, N-[3-(2,6-Di-morpholin-4-yl-9H-purin-8-yl)-phenyl]-acetamide]
6050	6	90	452	–	C[C@@H]1COCCN1c1nc(N2CCOCC2)nc2[nH]c(-c3cccc4[nH]ccc34)nc12 [Example 20, 8-(1H-Indol-4-yl)-6-((R)-3-methyl-morpholin-4-yl)-2-morpholin-4-yl-9H-purine]
4220	1200	920	–	8670	c1cc(-c2nc3c(N4C[C@@H]5C[C@H]4CO5)nc(N4CCOCC4)nc3[nH]2)c2cc[nH]c2c1 [Example 50, 8-(1H-Indol-4-yl)-2-morpholin-4-yl-6-(1S,4S)-2-oxa-5-aza-bicyclo[2.2.1]hept-5-yl-9H-purine]
> 9100	150	551	2590	–	C[C@H]1COCCN1c1nc(N2CCC(F)(F)CC2)nc2[nH]c(-c3cccc4[nH]ccc34)nc12 [Example 5, 2-(4,4-Difluoro-piperidin-1-yl)-8-(1H-indol-4-yl)-6-((S)-3-methyl-morpholin-4-yl)-9H-purine]
420	50	88	–	386	C[C@H]1COCCN1c1nc(N2CC3CCC(C2)O3)nc2[nH]c(-c3cccc4[nH]ccc34)nc12 [Example 52, 8-(1H-Indol-4-yl)-6-((S)-3-methyl-morpholin-4-yl)-2-(8-oxa-3-aza-bicyclo[3.2.1]oct-3-yl)-9H-purine]
580	30	100	–	171	C[C@@H]1COCCN1c1nc(N2CC3CCC(C2)O3)nc2[nH]c(-c3cccc4[nH]ccc34)nc12 [Example 46, 8-(1H-Indol-4-yl)-6-((R)-3-methyl-morpholin-4-yl)-2-(8-oxa-3-aza-bicyclo[3.2.1]oct-3-yl)-9H-purine]
6530	510	2320	> 2000	–	C[C@H]1COCCN1c1nc(N2CCOC[C@@H]2C)c2nc(-c3ccnc4[nH]ccc34)[nH]c2n1 [Example 3, 2,6-Bis-((S)-3-methyl-morpholin-4-yl)-8-(1H-pyrrolo[2,3-b]pyridin-4-yl)-9H-purine]
5050	46	70	2500	–	C[C@@H]1COCCN1c1nc(N2CCOC[C@@H]2C)c2nc(-c3cccc4[nH]ccc34)[nH]c2n1 [Example 18, 8-(1H-Indol-4-yl)-2-((R)-3-methyl-morpholin-4-yl)-6-((S)-3-methyl-morpholin-4-yl)-9H-purine]
4580	9	62	1780	–	C[C@@H]1COCCN1c1nc(N2CCOC[C@H]2C)c2nc(-c3cccc4[nH]ccc34)[nH]c2n1 [Example 15, 8-(1H-Indol-4-yl)-2,6-bis-((R)-3-methyl-morpholin-4-yl)-9H-purine]
2070	172	452	> 700	–	COC1CCN(c2nc(N3CCOCC3)c3nc(-c4cccc5[nH]ccc45)[nH]c3n2)CC1 [Example 25, 8-(1H-Indol-4-yl)-2-(4-methoxy-piperidin-1-yl)-6-morpholin-4-yl-9H-purine]
> 9100	237	831	498	–	C[C@@H]1COCCN1c1nc(N2CCOCC2)nc2[nH]c(-c3ccc4cc[nH]c4c3)nc12 [Example 21, 8-(1H-Indol-6-yl)-6-((R)-3-methyl-morpholin-4-yl)-2-morpholin-4-yl-9H-purine]
7300	160	460	2000	–	C[C@H]1COCCN1c1nc(N2CCC(O)CC2)nc2[nH]c(-c3cccc4[nH]ccc34)nc12 [Example 16, 1-[8-(1H-Indol-4-yl)-6-((S)-3-methyl-morpholin-4-yl)-9H-purin-2-yl]-piperidin-4-ol]
> 9100	41	127	731	–	c1cc(-c2nc3c(N4CC5CCC(C4)O5)nc(N4CCOCC4)nc3[nH]2)c2cc[nH]c2c1 [Example 8, 8-(1H-Indol-4-yl)-2-morpholin-4-yl-6-(8-oxa-3-aza-bicyclo[3.2.1]oct-3-yl)-9H-purine]
1010	40	39	–	160	C[C@@H]1COCCN1c1nc(N2CCOC[C@@H]2C)nc2[nH]c(-c3cccc4[nH]ccc34)nc12 [Example 43, 8-(1H-Indol-4-yl)-2-((S)-3-methyl-morpholin-4-yl)-6-((R)-3-methyl-morpholin-4-yl)-9H-purine]
2010	2390	174	–	3650	c1cc(-c2cc3c(N4CCOCC4)nc(N4CCOCC4)nc3[nH]2)c2cc[nH]c2c1 [Example 56, 6-(1H-Indol-4-yl)-2,4-di-morpholin-4-yl-7H-pyrrolo[2,3-d]pyrimidine]
60	60	111	–	461	C[C@@H]1COCCN1c1nc(N2CCOCC2)c2nc(-c3cccc4[nH]ccc34)[nH]c2n1 [Example 47, 8-(1H-Indol-4-yl)-2-((R)-3-methyl-morpholin-4-yl)-6-morpholin-4-yl-9H-purine]
40	340	7190	5930	–	c1cc(-c2nc3c(N4CCOCC4)nc(N4CCOCC4)nc3[nH]2)c2cn[nH]c2c1 [Example 27, 8-(1H-Indazol-4-yl)-2,6-di-morpholin-4-yl-9H-purine]
6470	350	841	–	> 8000	CC1(C)COCCN1c1nc(N2CCOCC2)nc2[nH]c(-c3cccc4[nH]ccc34)nc12 [Example 40, 6-(3,3-Dimethyl-morpholin-4-yl)-8-(1H-indol-4-yl)-2-morpholin-4-yl-9H-purine]
5950	140	388	–	395	C[C@@H]1COCCN1c1nc(N2CCOC[C@@H]2C)nc2[nH]c(-c3ccc4cc[nH]c4c3)nc12 [Example 44, 8-(1H-Indol-6-yl)-2-((S)-3-methyl-morpholin-4-yl)-6-((R)-3-methyl-morpholin-4-yl)-9H-purine]

Compound	IC50 (PI3Kα) [nM]	IC50 (FRAP1/mTOR) [nM]	IC50 [1] [nM]	EC50 (H4 mCherry-GFP-LC3 cells; [2]) [nM]	EC50 (H4 mCherry-GFP-LC3 cells; [3]) [nM]
C[C@@H]1COCCN1c1nc(N2CCOC[C@@H]2C)nc2[nH]c(-c3cccc4[nH]ccc34)cc12 [Example 55, 6-(1H-Indol-4-yl)-4-((R)-3-methyl-morpholin-4-yl)-2-((S)-3-methyl-morpholin-4-yl)-7H-pyrrolo[2,3-d]pyrimidine]	1440	2670	71	–	1000
c1cc2ccc(-c3nc4c(N5C6CCC5COC6)nc(N5CCOCC5)nc4[nH]3)cc2[nH]1 [Example 53, 8-(1H-Indol-6-yl)-2-morpholin-4-yl-6-(3-oxa-8-aza-bicyclo[3.2.1]oct-8-yl)-9H-purine]	> 9100	190	528	–	782
